Like-named read-outs stand apart in the source and are kept apart here.
Test system: MV-4-11 cells
Assay: Cell Viability Assay in MV-4-11 Cells
Type: cell-based
Conditions: Homo sapiens, MV4-11, 72 h
Procedure, shortened: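 MV-4-11 cells at 7,000/well in IMDM with 10% FBS, exposed to compound for 72 h. Viability by CellTiter-Glo luminescence, normalized to DMSO as 100%, fitted with a four-parameter curve.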

[1] = MV-4-11 cells, 72 h, Cell-Titer Glo, read-out: IC50

SMILES | IC50 [1] [nM] | IC50 [nM]
Cn1cc(-c2ccc(C(=O)N(c3nccc4cc(-c5ccc(S(C)(=O)=O)cc5)ccc34)[C@@H]3CCCNC3)c(F)c2)nn1 [Example 582, (R)-2-fluoro-4-(1-methyl-1H-1,2,3-triazol-4-yl)-N-(6-(4-(methylsulfonyl)phenyl)isoquinolin-1-yl)-N-(piperidin-3-yl)benzamide] | 220 | –
Cc1cc(F)cc2ccnc(N(C(=O)c3ccc(-n4nnc5cccnc54)cc3F)[C@@H]3CCCNC3)c12 [Example 583, (R)-4-(3H-[1,2,3]triazolo[4,5-b]pyridin-3-yl)-2-fluoro-N-(6-fluoro-8-methylisoquinolin-1-yl)-N-(piperidin-3-yl)benzamide] | 4.2 | –
CC(C)(O)c1ccc(-c2cc3c(N(C(=O)c4ccc(-n5nnc6cccnc65)cc4F)[C@@H]4CCCNC4)nccc3s2)cc1 [Example 585, (R)-4-(3H-[1,2,3]triazolo[4,5-b]pyridin-3-yl)-2-fluoro-N-(2-(4-(2-hydroxypropan-2-yl)phenyl)thieno[3,2-c]pyridin-4-yl)-N-(piperidin-3-yl)benzamide] | 440 | –
CC(C)(O)C#Cc1ccc2c(N(C(=O)c3ccc(-n4nnc5cccnc54)cc3F)[C@@H]3CCCNC3)nccc2c1 [Example 586, (R)-4-(3H-[1,2,3]triazolo[4,5-b]pyridin-3-yl)-2-fluoro-N-(6-(3-hydroxy-3-methylbut-1-yn-1-yl)isoquinolin-1-yl)-N-(piperidin-3-yl)benzamide] | 310 | –
Cc1cc(C#CC(C)(C)O)cc2ccnc(N(C(=O)c3ccc(-n4nnc5cccnc54)cc3F)[C@@H]3CCCNC3)c12 [Example 587, (R)-4-(3H-[1,2,3]triazolo[4,5-b]pyridin-3-yl)-2-fluoro-N-(6-(3-hydroxy-3-methylbut-1-yn-1-yl)-8-methylisoquinolin-1-yl)-N-(piperidin-3-yl)benzamide] | 14 | –
Cc1cccc2ccnc(N(C(=O)c3cccc(C#CCCN4C(=O)c5ccccc5C4=O)c3)[C@@H]3CCCNC3)c12 [Example 588, (R)-3-(4-(1,3-dioxoisoindolin-2-yl)but-1-yn-1-yl)-N-(8-methylisoquinolin-1-yl)-N-(piperidin-3-yl)benzamide] | 790 | –
COC(=O)CCC#Cc1cccc(C(=O)N(c2nccc3cccc(C)c23)[C@@H]2CCCNC2)c1 [Example 589, methyl (R)-5-(3-((8-methylisoquinolin-1-yl)(piperidin-3-yl)carbamoyl)phenyl)pent-4-ynoate] | 1000 | –
Cc1cccc2ccnc(N(C(=O)c3cccc(C#CCCC(=O)O)c3)[C@@H]3CCCNC3)c12 [Example 590, (R)-5-(3-((8-methylisoquinolin-1-yl)(piperidin-3-yl)carbamoyl)phenyl)pent-4-ynoic acid] | > 10000 | –
O=C(c1ccc(Nc2ncccn2)cc1F)N(c1nccc2cc(F)ccc12)[C@@H]1CCCNC1 [Example 591, (R)-2-fluoro-N-(6-fluoroisoquinolin-1-yl)-N-(piperidin-3-yl)-4-(pyrimidin-2-ylamino)benzamide] | > 2000 | –
Cc1cccc2ccnc(N(C(=O)c3ccc(C#CC(C)(C)O)cc3F)[C@@H]3CCCNC3)c12 [Example 592, (R)-2-fluoro-4-(3-hydroxy-3-methylbut-1-yn-1-yl)-N-(8-methylisoquinolin-1-yl)-N-(piperidin-3-yl)benzamide] | – | 360
Cc1nnc(-c2ccc(C(=O)N(c3nccc4sc(-c5ccncc5)cc34)[C@@H]3CCCNC3)c(F)c2)s1 [Example 593, 2-fluoro-4-(5-methyl-1,3,4-thiadiazol-2-yl)-N-[(3R)-3-piperidyl]-N-[2-(4-pyridyl)thieno[3,2-c]pyridin-4-yl]benzamide] | 780 | –
CC(C)(Oc1cccc(-c2cc3c(N(C(=O)c4ccc(-n5nnc6cccnc65)cc4F)[C@@H]4CCCNC4)nccc3s2)c1)C(N)=O [Example 594] | 190 | –
Cn1cc(-c2ccc(C(=O)N(c3nccc4sc(-c5ccc(C(C)(C)C(N)=O)cc5)cc34)[C@@H]3CCCNC3)c(F)c2)nn1 [Example 595] | 470 | –
Cn1cc(-c2ccc(C(=O)N(c3nccc4sc(-c5ccc(-c6cn[nH]c6)cc5)cc34)[C@@H]3CCCNC3)c(F)c2)nn1 [Example 597] | 190 | –
O=C(c1ccc(-n2nnc3cccnc32)cc1F)N(c1nccc2sc(-c3ccc(CO)cc3)cc12)[C@@H]1CCCNC1 [Example 599, (R)-4-(3H-[1,2,3]triazolo[4,5-b]pyridin-3-yl)-2-fluoro-N-(2-(4-(hydroxymethyl)phenyl)thieno[3,2-c]pyridin-4-yl)-N-(piperidin-3-yl)benzamide] | 240 | –
CC(O)c1ccc(-c2cc3c(N(C(=O)c4ccc(-n5nnc6cccnc65)cc4F)[C@@H]4CCCNC4)nccc3s2)cc1 (stereo partly drawn) [Example 600, 4-(3H-[1,2,3]triazolo[4,5-b]pyridin-3-yl)-2-fluoro-N-(2-(4-(1-hydroxyethyl)phenyl)thieno[3,2-c]pyridin-4-yl)-N—((R)-piperidin-3-yl)benzamide] | 270 | –
CC(O)c1cccc(-c2cc3c(N(C(=O)c4ccc(-n5nnc6cccnc65)cc4F)[C@@H]4CCCNC4)nccc3s2)c1 (stereo partly drawn) [Example 601, 4-(3H-[1,2,3]triazolo[4,5-b]pyridin-3-yl)-2-fluoro-N-(2-(3-(1-hydroxyethyl)phenyl)thieno[3,2-c]pyridin-4-yl)-N—((R)-piperidin-3-yl)benzamide] | 200 | –
CC(C)(O)c1cccc(-c2cc3c(N(C(=O)c4ccc(-n5nnc6cccnc65)cc4F)[C@@H]4CCCNC4)nccc3s2)c1 [Example 602, (R)-4-(3H-[1,2,3]triazolo[4,5-b]pyridin-3-yl)-2-fluoro-N-(2-(3-(2-hydroxypropan-2-yl)phenyl)thieno[3,2-c]pyridin-4-yl)-N-(piperidin-3-yl)benzamide] | 460 | –
CC(=O)c1ccc(-c2cc3c(N(C(=O)c4ccc(-n5nnc6cccnc65)cc4F)[C@@H]4CCCNC4)nccc3s2)cc1 [Example 603, N-[2-(4-acetylphenyl)thieno[3,2-c]pyridin-4-yl]-2-fluoro-N-[(3R)-3-piperidyl]-4-(triazolo[4,5-b]pyridin-3-yl) benzamide] | 240 | –
Cn1cc(-c2ccc(C(=O)N(c3nccc4sc(-c5ccc(C(O)(C(F)(F)F)C(F)(F)F)cc5)cc34)[C@@H]3CCCNC3)c(F)c2)nn1 [Example 604, (R)-2-fluoro-N-(2-(4-(1,1,1,3,3,3-hexafluoro-2-hydroxypropan-2-yl)phenyl)thieno[3,2-c]pyridin-4-yl)-4-(1-methyl-1H-1,2,3-triazol-4-yl)-N-(piperidin-3-yl)benzamide] | 2100 | –
Cn1cc(-c2ccc(C(=O)N(c3nccc4sc(-c5ccc(C(O)C(F)(F)F)cc5)cc34)[C@@H]3CCCNC3)c(F)c2)nn1 (stereo partly drawn) [Example 605, 2-fluoro-4-(1-methyl-1H-1,2,3-triazol-4-yl)-N—((R)-piperidin-3-yl)-N-(2-(4-(2,2,2-trifluoro-1-hydroxyethyl)phenyl)thieno[3,2-c]pyridin-4-yl)benzamide] | 470 | –
Cc1cc(-c2cc3c(N(C(=O)c4ccc(-n5nnc6cccnc65)cc4F)[C@@H]4CCCNC4)nccc3s2)cc(C)c1C(N)=O [Example 606, (R)-4-(3H-[1,2,3]triazolo[4,5-b]pyridin-3-yl)-N-(2-(4-carbamoyl-3,5-dimethylphenyl)thieno[3,2-c]pyridin-4-yl)-2-fluoro-N-(piperidin-3-yl)benzamide] | 400 | –
Cc1cc(-c2cc3c(N(C(=O)c4ccc(-c5cn(C)nn5)cc4F)[C@@H]4CCCNC4)nccc3s2)ccc1C(N)=O [Example 607, (R)—N-(2-(4-carbamoyl-3-methylphenyl)thieno[3,2-c]pyridin-4-yl)-2-fluoro-4-(1-methyl-1H-1,2,3-triazol-4-yl)-N-(piperidin-3-yl)benzamide] | 800 | –
Cn1cc(-c2ccc(C(=O)N(c3nccc4cc(Cc5ccccc5)ccc34)[C@@H]3CCCNC3)c(F)c2)nn1 [Example 609, (R)—N-(6-benzylisoquinolin-1-yl)-2-fluoro-4-(1-methyl-1H-1,2,3-triazol-4-yl)-N-(piperidin-3-yl)benzamide] | 400 | –
CC(=O)c1ccc2c(N(C(=O)c3ccc(-c4cn(C)nn4)cc3F)[C@@H]3CCCNC3)nccc2c1 [Example 610, (R)—N-(6-acetylisoquinolin-1-yl)-2-fluoro-4-(1-methyl-1H-1,2,3-triazol-4-yl)-N-(piperidin-3-yl)benzamide] | 86 | –
Cc1cc(-c2cc3c(N(C(=O)c4ccc(-c5cn(C)nn5)cc4F)[C@@H]4CCCNC4)nccc3s2)cc(C)c1C(N)=O [Example 611, (R)—N-(2-(4-carbamoyl-3,5-dimethylphenyl)thieno[3,2-c]pyridin-4-yl)-2-fluoro-4-(1-methyl-1H-1,2,3-triazol-4-yl)-N-(piperidin-3-yl)benzamide] | 2300 | –
Cc1c(-c2ccc(C(=O)N(c3nccc4sc(-c5ccc(C(N)=O)cc5)cc34)[C@@H]3CCCNC3)c(F)c2)cnn1C [Example 612, (R)—N-(2-(4-carbamoylphenyl)thieno[3,2-c]pyridin-4-yl)-4-(1,5-dimethyl-1H-pyrazol-4-yl)-2-fluoro-N-(piperidin-3-yl)benzamide] | 280 | –
Cn1cc(-c2ccc(C(=O)N(c3nccc4sc(-c5ccc(C(N)C(F)(F)F)cc5)cc34)[C@@H]3CCCNC3)c(F)c2)nn1 (stereo partly drawn) [Example 613, N-(2-(4-(1-amino-2,2,2-trifluoroethyl)phenyl)thieno[3,2-c]pyridin-4-yl)-2-fluoro-4-(1-methyl-1H-1,2,3-triazol-4-yl)-N—((R)-piperidin-3-yl)benzamide] | 460 | –
Cc1cc(F)cc2ccnc(N(C(=O)c3ccc(-c4cn(C)nn4)cc3)[C@@H]3CCCNC3)c12 [Example 614, (R)—N-(6-fluoro-8-methylisoquinolin-1-yl)-4-(1-methyl-1H-1,2,3-triazol-4-yl)-N-(piperidin-3-yl)benzamide] | 16 | –
Cc1cc(Cl)cc2ccnc(N(C(=O)c3ccc(-n4nnc5cccnc54)cc3F)[C@@H]3CCCNC3)c12 [Example 615, N-(6-chloro-8-methyl-1-isoquinolyl)-2-fluoro-N-[(3R)-3-piperidyl]-4-(triazolo[4,5-b]pyridin-3-yl)benzamide] | 17 | –

— patent US20240400555A1 (Initial Therapeutics, Inc., priority 2023, published 2024)
